Assay results published in publication PMC4893628, “Chalcone-based Selective Inhibitors of a C4 Plant Key Enzyme as Novel Potential Herbicides” (Scientific Reports, 2016).
Like-named read-outs stand apart in the source and are kept apart here.

What was measured:
[1] = test system: Escherichia coli K-12 MG1655; experiment: Bacterial growth in microscale cultivation, E. coli; assay type: cell-based; settings: for activity at 0.3 µM / activity at 3 µM / activity at 30 µM: Escherichia coli; for Lag Phase: relative to control
In short: (§1)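 Inhibitors in DMSO were added to the medium, at a maximum of 400 μM for trans-chalcone and 100 μM for 2'-hydroxychalcone. Cultures were seeded at OD600 0.5, or 0.25 for B. subtilis, and growth was followed as 620 nm backscatter in a BioLector at 1200 rpm. Final backscatter, growth rate and lag phase were compared with DMSO controls.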

[2] = molecular target: T1, F. trinervia PEPC (Flaveria trinervia, UniProt P30694); experiment: biochemical; assay type: biochemical; settings: for Selectivity C4/C3: C4 PEPC over C3 isoform
T1 construct: the full-length ppcA gene of PEPC from F. trinervia (EMBL-Bank X61304); made in house; host or cells: Escherichia coli BL21(DE3)
T1 sequence (P30694 1-966): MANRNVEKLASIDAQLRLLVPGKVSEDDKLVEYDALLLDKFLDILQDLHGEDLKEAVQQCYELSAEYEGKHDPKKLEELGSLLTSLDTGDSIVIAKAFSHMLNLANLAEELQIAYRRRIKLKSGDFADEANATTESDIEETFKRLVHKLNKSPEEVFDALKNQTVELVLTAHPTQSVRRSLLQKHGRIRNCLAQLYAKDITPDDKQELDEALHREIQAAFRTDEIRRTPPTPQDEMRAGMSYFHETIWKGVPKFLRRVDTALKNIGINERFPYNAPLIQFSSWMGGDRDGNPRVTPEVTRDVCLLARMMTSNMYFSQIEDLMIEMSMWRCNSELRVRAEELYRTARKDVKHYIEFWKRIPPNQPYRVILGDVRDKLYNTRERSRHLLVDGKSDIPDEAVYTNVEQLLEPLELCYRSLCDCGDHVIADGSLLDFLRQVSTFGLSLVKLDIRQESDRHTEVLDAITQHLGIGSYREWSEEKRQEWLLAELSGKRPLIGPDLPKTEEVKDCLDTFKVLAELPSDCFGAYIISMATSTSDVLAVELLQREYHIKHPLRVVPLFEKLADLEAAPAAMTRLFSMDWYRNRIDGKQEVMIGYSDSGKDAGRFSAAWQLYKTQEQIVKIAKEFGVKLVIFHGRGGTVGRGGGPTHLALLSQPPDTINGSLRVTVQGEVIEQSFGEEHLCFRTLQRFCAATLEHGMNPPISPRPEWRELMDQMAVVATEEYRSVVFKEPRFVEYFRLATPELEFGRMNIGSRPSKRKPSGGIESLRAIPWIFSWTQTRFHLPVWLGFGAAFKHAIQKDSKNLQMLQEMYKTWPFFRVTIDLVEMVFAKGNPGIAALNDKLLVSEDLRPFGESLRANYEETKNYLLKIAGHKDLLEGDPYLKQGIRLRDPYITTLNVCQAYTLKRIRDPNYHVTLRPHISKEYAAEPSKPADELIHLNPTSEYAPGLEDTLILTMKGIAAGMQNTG

[3] = test system: Bacillus subtilis 168; experiment: Bacterial growth in microscale cultivation, B. subtilis; assay type: cell-based; settings: for Lag Phase: relative to control
In short: as §1

[4] = test system: Corynebacterium glutamicum ATCC13032; experiment: Bacterial growth in microscale cultivation, C. glutamicum; assay type: cell-based; settings: for activity at 0.3 µM / activity at 3 µM / activity at 30 µM: Corynebacterium glutamicum; for Lag Phase: relative to control
In short: as §1

O=C(/C=C/c1ccccc1)c1ccc(O)c(O)c1O [Compound 10, 2′,3′,4′-Trihydroxychalcone]
activity at 0.3 µM ([1]; MG1655, read-out: Final Backscatter, complex medium, 0.3 µM, relative to control): 106%
activity at 3 µM ([1]; MG1655, read-out: Final Backscatter, complex medium, 3 µM, relative to control): 106%
activity at 30 µM ([1]; MG1655, read-out: Final Backscatter, complex medium, 30 µM, relative to control): 98.9%
activity at 0.3 µM ([1]; MG1655, read-out: Final Backscatter, minimal medium, 0.3 µM, relative to control): 105%
activity at 3 µM ([1]; MG1655, read-out: Final Backscatter, minimal medium, 3 µM, relative to control): 105%
activity at 30 µM ([1]; MG1655, read-out: Final Backscatter, minimal medium, 30 µM, relative to control): 109%
activity at 0.3 µM ([1]; MG1655, read-out: Growth rate, complex medium, 0.3 µM, relative to control): 109%
activity at 3 µM ([1]; MG1655, read-out: Growth rate, complex medium, 3 µM, relative to control): 99.8%
activity at 30 µM ([1]; MG1655, read-out: Growth rate, complex medium, 30 µM, relative to control): 104%
activity at 0.3 µM ([1]; MG1655, read-out: Growth rate, minimal medium, 0.3 µM, relative to control): 96.3%
activity at 3 µM ([1]; MG1655, read-out: Growth rate, minimal medium, 3 µM, relative to control): 92%
activity at 30 µM ([1]; MG1655, read-out: Growth rate, minimal medium, 30 µM, relative to control): 99.2%
Lag Phase ([1]; complex medium, 0.3 µM): 92,1%
Lag Phase ([1]; complex medium, 3 µM): 94,8%
Lag Phase ([1]; complex medium, 30 µM): 118,4%
Lag Phase ([1]; minimal medium, 0.3 µM): 92,1%
Lag Phase ([1]; minimal medium, 3 µM): 90,6%
Lag Phase ([1]; minimal medium, 30 µM): 92,1%
Selectivity C4/C3 [2]: 15 fold
Selectivity C4/C3 ([2]; listed as 2′,3′,4′-Trihydroxychalcone): 15–45 fold
IC50 ([2]; IC50 F. trinervia PEPC, C4 PEPC): 4.2 ± 1.5 µM
activity at 0.3 µM ([3]; Bacillus subtilis, 168, read-out: Final Backscatter, complex medium, 0.3 µM, relative to control): 102%
activity at 3 µM ([3]; Bacillus subtilis, 168, read-out: Final Backscatter, complex medium, 3 µM, relative to control): 101%
activity at 30 µM ([3]; Bacillus subtilis, 168, read-out: Final Backscatter, complex medium, 30 µM, relative to control): 103%
activity at 0.3 µM ([3]; Bacillus subtilis, 168, read-out: Final Backscatter, minimal medium, 0.3 µM, relative to control): 108%
activity at 3 µM ([3]; Bacillus subtilis, 168, read-out: Final Backscatter, minimal medium, 3 µM, relative to control): 110%
activity at 30 µM ([3]; Bacillus subtilis, 168, read-out: Final Backscatter, minimal medium, 30 µM, relative to control): 106%
activity at 0.3 µM ([3]; Bacillus subtilis, 168, read-out: Growth rate, complex medium, 0.3 µM, relative to control): 106%
activity at 3 µM ([3]; Bacillus subtilis, 168, read-out: Growth rate, complex medium, 3 µM, relative to control): 109%
activity at 30 µM ([3]; Bacillus subtilis, 168, read-out: Growth rate, complex medium, 30 µM, relative to control): 112%
activity at 0.3 µM ([3]; Bacillus subtilis, 168, read-out: Growth rate, minimal medium, 0.3 µM, relative to control): 88.5%
activity at 3 µM ([3]; Bacillus subtilis, 168, read-out: Growth rate, minimal medium, 3 µM, relative to control): 94.4%
activity at 30 µM ([3]; Bacillus subtilis, 168, read-out: Growth rate, minimal medium, 30 µM, relative to control): 90.6%
Lag Phase ([3]; complex medium, 0.3 µM): 100,0%
Lag Phase ([3]; complex medium, 3 µM): 104,2%
Lag Phase ([3]; complex medium, 30 µM): 97,9%
Lag Phase ([3]; minimal medium, 0.3 µM): 98,3%
Lag Phase ([3]; minimal medium, 3 µM): 96,6%
Lag Phase ([3]; minimal medium, 30 µM): 99,3%
activity at 0.3 µM ([4]; ATCC13032, read-out: Final Backscatter, complex medium, 0.3 µM, relative to control): 105%
activity at 3 µM ([4]; ATCC13032, read-out: Final Backscatter, complex medium, 3 µM, relative to control): 109%
activity at 30 µM ([4]; ATCC13032, read-out: Final Backscatter, complex medium, 30 µM, relative to control): 110%
activity at 0.3 µM ([4]; ATCC13032, read-out: Final Backscatter, minimal medium, 0.3 µM, relative to control): 103%
activity at 3 µM ([4]; ATCC13032, read-out: Final Backscatter, minimal medium, 3 µM, relative to control): 104%
activity at 30 µM ([4]; ATCC13032, read-out: Final Backscatter, minimal medium, 30 µM, relative to control): 104%
activity at 0.3 µM ([4]; ATCC13032, read-out: Growth rate, complex medium, 0.3 µM, relative to control): 106%
activity at 3 µM ([4]; ATCC13032, read-out: Growth rate, complex medium, 3 µM, relative to control): 112%
activity at 30 µM ([4]; ATCC13032, read-out: Growth rate, complex medium, 30 µM, relative to control): 118%
activity at 0.3 µM ([4]; ATCC13032, read-out: Growth rate, minimal medium, 0.3 µM, relative to control): 104%
activity at 3 µM ([4]; ATCC13032, read-out: Growth rate, minimal medium, 3 µM, relative to control): 103%
activity at 30 µM ([4]; ATCC13032, read-out: Growth rate, minimal medium, 30 µM, relative to control): 99.3%
Lag Phase ([4]; complex medium, 0.3 µM): 100,0%
Lag Phase ([4]; complex medium, 3 µM): 97,8%
Lag Phase ([4]; complex medium, 30 µM): 94,9%
Lag Phase ([4]; minimal medium, 0.3 µM): 97,9%
Lag Phase ([4]; minimal medium, 3 µM): 98,6%
Lag Phase ([4]; minimal medium, 30 µM): 102,1%
